Data as given in paper PMC4328002 (Natural Products and Bioprospecting, 2015).
Several values for one entry are separate records, joined by “and”; a condition that tells them apart may be missing. Equal values may be shown once. Read-outs that look alike come from different tables or passages of the source.

Columns and labels:
[1] = system: SW-480 (colon adenocarcinoma); assay: cells; type: cell-based, human; conditions: read-out: Cancer cell line IC50, SW480
A549 (lung carcinoma) = assay: cells; type: cell-based, human
[2] = system: HL-60 (promyelocytic leukemia); assay: cells; type: cell-based, human; conditions: read-out: Cancer cell line IC50, HL-60
[3] = system: SMMC-7721 (hepatocarcinoma); assay: cells; type: cell-based, human; conditions: read-out: Cancer cell line IC50, SMMC-7721
[4] = system: MCF-7 (breast adenocarcinoma); assay: cells; type: cell-based, human; conditions: read-out: Cancer cell line IC50, MCF-7
[5] = system: HL-60, SMMC-7721, A549, MCF-7 and SW-480 human cancer cell lines; assay: cells; type: cell-based; conditions: read-out: IC50 values across the five cancer cell lines
[6] = system: BEAS-2B normal cell line (human bronchial epithelial cell); assay: cells; conditions: read-out: Cancer cell line IC50, BEAS-2B
[7] = system: BEAS-2B normal cell line (human bronchial epithelial cell); conditions: for IC50: read-out: Cancer cell line IC50, BEAS-2B
[8] = Homo sapiens, A549, 48 h, read-out: Cancer cell line IC50, A549
[9] = Homo sapiens, A549, read-out: Cancer cell line IC50, A549
[10] = read-out: Cancer cell line IC50, A549

| Structure (SMILES) | IC50 ([1]; Homo sapiens, SW480, 48 h) | IC50 (A549 (lung carcinoma); [8]) | IC50 ([2]; Homo sapiens, HL-60, 48 h) | IC50 ([3]; Homo sapiens, SMMC-7721, 48 h) | IC50 ([4]; Homo sapiens, MCF7, 48 h) | IC50 ([5]; Homo sapiens, 48 h) | IC50 (A549 (lung carcinoma); [9]) | IC50 [6] | selective cytotoxicity against the A549 cell line [7] | IC50 [1] | IC50 (A549 (lung carcinoma); [10]) | IC50 [7] | IC50 [2] | IC50 [3] | IC50 [4] | IC50 [5] |
| --- | --- | --- | --- | --- | --- | --- | --- | --- | --- | --- | --- | --- | --- | --- | --- | --- |
| CC1=C[C@]23O[C@@H]4CC[C@](C)([C@@]2(C)CC1)[C@]4(CO)O3 [Compound 4, 3-deoxysambucinol] | > 40 µM | > 40 µM | > 40 µM | > 40 µM | > 40 µM | > 40 µM |  |  |  |  |  |  |  |  |  |  |
| C/C=C\C(=O)O[C@@H]1C[C@H]2O[C@@]34C=C(C)C(=O)C[C@]3(C)[C@]1(C)[C@]2(CO)O4 [Compound 1, engleromycone A] | 20.2 µM | 19.1 µM | 14.3 µM | 19.1 µM | 18 µM | 14.3 to 20.2 µM | 18.9 µM | 19.4 µM | did not exhibit selective cytotoxicity |  |  |  |  |  |  |  |
| CC1=C[C@]23O[C@@H]4[C@@H](O)C[C@](C)([C@@]2(C)CC1)[C@]4(CO)O3 [Compound 3, sambucinol] | > 40 µM | > 40 µM | > 40 µM | > 40 µM | > 40 µM | > 40 µM |  |  |  |  |  |  |  |  |  |  |
| N.N.[Cl][Pt][Cl] [Cisplatin, cisplatin, reference compound] |  |  |  |  |  |  |  |  |  | 12 µM | 6.43 µM and 9.72 µM | 9.53 µM | 1.91 µM | 5.81 µM | 13.3 µM |  |
| C/C=C\C(=O)O[C@@H]1[C@@H](O)[C@H]2O[C@@H]3C=C(C)C(=O)C[C@]3(C)[C@]1(C)[C@]21CO1 [Compound 10, trichothecinol A] |  |  |  |  |  |  |  |  | did not exhibit selective cytotoxicity | 0.011 µM | 0.015 µM and 0.016 µM | 0.025 µM | 0.022 µM | 0.02 µM | 0.006 µM | < 3.5 µM |
| C=C1[C@H]2C[C@@H](OC(=O)/C=C\C)[C@]1(C)[C@@]1(C)CC(=O)C(C)=C[C@H]1O2 [Compound 2, engleromycone B] | 9.25 µM | 2.98 µM | 2.7 µM | 8.41 µM | 21.1 µM | 2.7 to 21.1 µM | 5.82 µM | 9.87 µM | did not exhibit selective cytotoxicity |  |  |  |  |  |  |  |
| C/C=C\C(=O)O[C@@H]1C[C@H]2O[C@@H]3C=C(C)C(=O)C[C@]3(C)[C@]1(C)[C@]21CO1 [Compound 8, trichothecin] |  |  |  |  |  |  |  |  | did not exhibit selective cytotoxicity | 0.18 µM | 0.2 µM and 0.22 µM | 0.27 µM | 0.14 µM | 0.22 µM | 0.21 µM | < 3.5 µM |
| CC1=C[C@H]2O[C@@H]3C[C@@H](O)[C@](C)([C@@]2(C)CC1=O)[C@]31CO1 [Compound 5, trichothecolone] |  |  |  |  |  |  |  |  | did not exhibit selective cytotoxicity | 8.52 µM | 4.16 µM and 5.71 µM | 4.18 µM | 4.86 µM | 6.92 µM | 16.5 µM |  |
| CC(=O)O[C@H]1C(=O)[C@@]2(C)[C@H]([C@H](OC(=O)c3ccccc3)[C@]3(O)C[C@H](OC(=O)[C@H](O)[C@@H](NC(=O)c4ccccc4)c4ccccc4)C(C)=C1C3(C)C)[C@]1(OC(C)=O)CO[C@@H]1C[C@@H]2O [Taxol, paclitaxel, reference compound] | < 0.008 µM | < 0.008 µM | < 0.008 µM | < 0.008 µM | < 0.008 µM |  | < 0.008 µM | < 0.98 µM |  |  |  |  |  |  |  |  |
